Like-named read-outs stand apart in the source and are kept apart here.
How the values were obtained:
Format in all cases: biochemical
Lck = target: T1, Lck (Homo sapiens, UniProt P06239); assay: Kinase inhibition assay (33P transfer), Lck; settings: read-out: Lck-1
T1 construct: Kinases are expressed as either kinase domains or full length constructs; made in house
Summary of the method: (§1)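 Liquid scintillation counting of 33P on plate-bound synthetic substrates gives kinase activity. Plates are washed in 0.5% phosphoric acid first; kinases are tagged recombinant proteins from E. coli or baculovirus-infected High Five cells.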

Zap-70 = target: T2, Zap-70 (Homo sapiens, UniProt P43403); assay: Kinase inhibition assay (33P transfer), Zap-70; settings: read-out: Zap-1
T2 construct: Kinases are expressed as either kinase domains or full length constructs; made in house
T2 sequence (P43403 1-619): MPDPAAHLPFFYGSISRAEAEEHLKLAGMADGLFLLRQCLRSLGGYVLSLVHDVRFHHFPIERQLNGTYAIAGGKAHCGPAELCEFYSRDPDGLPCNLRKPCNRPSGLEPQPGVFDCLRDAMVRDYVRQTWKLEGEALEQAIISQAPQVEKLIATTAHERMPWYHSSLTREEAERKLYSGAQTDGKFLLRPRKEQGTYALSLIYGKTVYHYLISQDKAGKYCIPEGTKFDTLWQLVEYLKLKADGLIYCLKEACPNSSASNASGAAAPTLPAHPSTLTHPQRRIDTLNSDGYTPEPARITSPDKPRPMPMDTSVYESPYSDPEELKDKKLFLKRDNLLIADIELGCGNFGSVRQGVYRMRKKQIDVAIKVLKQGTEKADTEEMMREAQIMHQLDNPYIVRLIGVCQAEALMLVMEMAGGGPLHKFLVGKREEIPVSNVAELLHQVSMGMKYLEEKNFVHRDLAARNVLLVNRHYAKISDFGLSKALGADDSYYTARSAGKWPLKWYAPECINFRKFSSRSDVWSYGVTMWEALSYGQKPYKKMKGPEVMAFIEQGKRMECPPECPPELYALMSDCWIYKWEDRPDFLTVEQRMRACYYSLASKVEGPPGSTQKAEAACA
Summary of the method: as §1

Itk = target: T3, Itk (Homo sapiens, UniProt Q08881); assay: Kinase inhibition assay (33P transfer), Itk; settings: read-out: Itk-1
T3 construct: Kinases are expressed as either kinase domains or full length constructs; made in house
T3 sequence (Q08881 1-620): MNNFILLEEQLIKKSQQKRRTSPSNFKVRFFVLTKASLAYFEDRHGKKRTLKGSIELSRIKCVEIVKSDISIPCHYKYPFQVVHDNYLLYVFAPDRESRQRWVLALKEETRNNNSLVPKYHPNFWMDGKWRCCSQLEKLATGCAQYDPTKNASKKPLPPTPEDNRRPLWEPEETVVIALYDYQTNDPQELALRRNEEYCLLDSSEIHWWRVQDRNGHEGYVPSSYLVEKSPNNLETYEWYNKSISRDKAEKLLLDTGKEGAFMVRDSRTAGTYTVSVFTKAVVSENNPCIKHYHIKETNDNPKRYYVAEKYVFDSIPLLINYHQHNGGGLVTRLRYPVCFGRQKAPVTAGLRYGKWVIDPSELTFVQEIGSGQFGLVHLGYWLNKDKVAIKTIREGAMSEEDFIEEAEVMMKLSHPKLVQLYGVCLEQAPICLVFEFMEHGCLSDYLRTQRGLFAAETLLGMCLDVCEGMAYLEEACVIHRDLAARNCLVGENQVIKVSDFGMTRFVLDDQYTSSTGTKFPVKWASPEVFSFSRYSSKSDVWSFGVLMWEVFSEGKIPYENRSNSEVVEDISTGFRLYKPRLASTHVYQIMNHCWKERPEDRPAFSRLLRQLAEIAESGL
Summary of the method: (§2)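 Steps: coat wells with poly(Glu,Tyr) 4:1 or poly(Arg,Ser) 3:1; add purified kinase, [33P]ATP and inhibitor; incubate; wash with 0.5% phosphoric acid; add liquid scintillant; count. IC50 corresponds to half-maximal reduction of bound 33P.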

EGFR = target: T4, EGFR (Homo sapiens, UniProt P00533); assay: Kinase inhibition assay (33P transfer), EGFR; settings: Table 2, kinase inhibition class; read-out: EGFR-1
T4 construct: Kinases are expressed as either kinase domains or full length constructs; made in house
T4 sequence (P00533 25-1210, species assumed): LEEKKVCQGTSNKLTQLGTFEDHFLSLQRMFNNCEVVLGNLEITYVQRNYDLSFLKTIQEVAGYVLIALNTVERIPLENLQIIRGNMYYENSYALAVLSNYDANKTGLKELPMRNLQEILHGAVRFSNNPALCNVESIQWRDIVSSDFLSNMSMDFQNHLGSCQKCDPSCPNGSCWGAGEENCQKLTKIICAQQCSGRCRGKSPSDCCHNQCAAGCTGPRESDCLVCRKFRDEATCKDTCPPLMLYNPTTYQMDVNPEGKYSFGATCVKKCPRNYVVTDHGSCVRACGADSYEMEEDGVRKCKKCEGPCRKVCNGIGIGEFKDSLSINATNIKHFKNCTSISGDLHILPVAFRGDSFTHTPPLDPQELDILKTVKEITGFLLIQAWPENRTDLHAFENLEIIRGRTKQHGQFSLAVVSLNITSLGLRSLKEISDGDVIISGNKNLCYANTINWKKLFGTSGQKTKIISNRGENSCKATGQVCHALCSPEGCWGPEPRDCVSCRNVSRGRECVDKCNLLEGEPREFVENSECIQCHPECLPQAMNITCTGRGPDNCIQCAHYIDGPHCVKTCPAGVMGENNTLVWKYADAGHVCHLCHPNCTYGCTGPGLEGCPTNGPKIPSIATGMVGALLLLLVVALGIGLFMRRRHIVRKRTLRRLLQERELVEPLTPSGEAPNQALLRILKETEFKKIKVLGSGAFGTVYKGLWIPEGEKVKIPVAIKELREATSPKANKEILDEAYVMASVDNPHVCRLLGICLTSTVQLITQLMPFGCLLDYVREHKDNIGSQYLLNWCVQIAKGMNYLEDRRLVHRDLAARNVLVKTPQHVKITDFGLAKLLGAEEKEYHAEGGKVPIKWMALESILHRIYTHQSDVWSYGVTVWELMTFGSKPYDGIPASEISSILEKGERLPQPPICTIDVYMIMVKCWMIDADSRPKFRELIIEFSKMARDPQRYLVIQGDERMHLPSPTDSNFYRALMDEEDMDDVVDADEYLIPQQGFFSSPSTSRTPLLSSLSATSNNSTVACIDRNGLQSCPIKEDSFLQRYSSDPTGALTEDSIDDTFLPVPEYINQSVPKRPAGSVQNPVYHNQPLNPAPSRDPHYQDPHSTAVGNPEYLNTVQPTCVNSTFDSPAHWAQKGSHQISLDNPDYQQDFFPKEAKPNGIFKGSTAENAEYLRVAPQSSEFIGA
Summary of the method: as §2

Kdr = target: T5, Kdr (Homo sapiens, UniProt P35968); assay: Kinase inhibition assay (33P transfer), Kdr
T5 construct: Kinases are expressed as either kinase domains or full length constructs; made in house
T5 sequence (P35968 20-1356, species assumed): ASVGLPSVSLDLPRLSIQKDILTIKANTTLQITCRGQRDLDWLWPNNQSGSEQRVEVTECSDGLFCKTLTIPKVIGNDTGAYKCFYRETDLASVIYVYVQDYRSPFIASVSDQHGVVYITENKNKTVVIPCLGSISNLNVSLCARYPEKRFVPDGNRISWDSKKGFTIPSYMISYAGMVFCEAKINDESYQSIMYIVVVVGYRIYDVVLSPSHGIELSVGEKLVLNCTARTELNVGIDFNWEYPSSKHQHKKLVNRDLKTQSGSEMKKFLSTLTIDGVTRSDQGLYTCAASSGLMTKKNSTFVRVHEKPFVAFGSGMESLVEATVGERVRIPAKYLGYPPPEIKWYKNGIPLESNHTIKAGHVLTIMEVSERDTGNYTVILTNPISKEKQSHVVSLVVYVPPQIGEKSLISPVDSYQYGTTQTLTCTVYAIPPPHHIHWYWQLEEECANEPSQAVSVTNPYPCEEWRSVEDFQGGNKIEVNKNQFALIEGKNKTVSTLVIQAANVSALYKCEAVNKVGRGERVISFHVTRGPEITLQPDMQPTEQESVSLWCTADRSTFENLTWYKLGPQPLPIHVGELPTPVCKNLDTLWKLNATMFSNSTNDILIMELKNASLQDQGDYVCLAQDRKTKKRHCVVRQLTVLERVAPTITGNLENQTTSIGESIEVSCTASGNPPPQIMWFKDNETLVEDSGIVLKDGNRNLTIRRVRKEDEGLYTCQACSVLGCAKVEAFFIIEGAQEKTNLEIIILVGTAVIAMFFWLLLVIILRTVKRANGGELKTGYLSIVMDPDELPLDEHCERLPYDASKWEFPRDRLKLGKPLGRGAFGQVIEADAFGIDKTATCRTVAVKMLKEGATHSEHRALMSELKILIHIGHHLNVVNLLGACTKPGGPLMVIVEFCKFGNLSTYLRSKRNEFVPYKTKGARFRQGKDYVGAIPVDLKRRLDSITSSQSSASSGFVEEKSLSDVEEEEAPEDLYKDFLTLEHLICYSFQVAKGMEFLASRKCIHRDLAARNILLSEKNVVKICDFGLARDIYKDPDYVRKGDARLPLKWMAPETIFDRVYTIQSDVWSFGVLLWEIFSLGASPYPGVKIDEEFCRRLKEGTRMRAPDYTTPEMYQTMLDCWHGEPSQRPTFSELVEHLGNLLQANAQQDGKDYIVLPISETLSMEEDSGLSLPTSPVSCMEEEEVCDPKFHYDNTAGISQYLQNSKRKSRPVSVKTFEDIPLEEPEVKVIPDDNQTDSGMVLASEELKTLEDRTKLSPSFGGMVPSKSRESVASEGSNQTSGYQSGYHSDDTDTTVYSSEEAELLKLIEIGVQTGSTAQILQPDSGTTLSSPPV
Summary of the method: as §1

Tek = target: T6, Tek (Homo sapiens, UniProt Q02763); assay: Kinase inhibition assay (33P transfer), Tek; settings: read-out: Tek-1
T6 construct: Kinases are expressed as either kinase domains or full length constructs; made in house
Summary of the method: as §2

c-Met = target: T7, c-Met (Homo sapiens, UniProt P08581); assay: Kinase inhibition assay (33P transfer), c-Met; settings: Table 2, kinase inhibition class; read-out: Met-1
T7 construct: Kinases are expressed as either kinase domains or full length constructs; made in house
Summary of the method: as §2

AKT = target: T8, AKT (Homo sapiens, UniProt Q9Y243); assay: Kinase inhibition assay (33P transfer), AKT; settings: Table 2, kinase inhibition class; read-out: AKT3-1
T8 construct: Kinases are expressed as either kinase domains or full length constructs; made in house
T8 sequence (Q9Y243 whole entry, the tested form may be a part): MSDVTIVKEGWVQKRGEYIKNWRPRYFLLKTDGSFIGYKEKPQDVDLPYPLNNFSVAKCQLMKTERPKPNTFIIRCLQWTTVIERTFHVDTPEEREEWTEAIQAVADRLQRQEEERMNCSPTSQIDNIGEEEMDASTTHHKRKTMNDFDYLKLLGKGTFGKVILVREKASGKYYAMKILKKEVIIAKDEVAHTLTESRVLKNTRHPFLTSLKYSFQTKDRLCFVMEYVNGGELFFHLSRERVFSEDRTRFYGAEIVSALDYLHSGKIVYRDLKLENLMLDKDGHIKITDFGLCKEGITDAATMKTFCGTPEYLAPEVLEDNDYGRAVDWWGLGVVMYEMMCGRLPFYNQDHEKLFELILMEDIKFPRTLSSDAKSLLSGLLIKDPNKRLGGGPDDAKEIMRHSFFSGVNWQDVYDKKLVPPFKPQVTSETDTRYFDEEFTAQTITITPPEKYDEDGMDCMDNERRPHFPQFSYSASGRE
Summary of the method: as §1

IGFR-1 [1] = target: T9, IGFR-1 (Homo sapiens, UniProt P08069); assay: Kinase inhibition assay, IGFR-1 (Table 2); settings: Table 2, kinase inhibition class
T9 construct: Kinases are expressed as either kinase domains or full length constructs; made in house
T9 sequence (P08069 31-1367): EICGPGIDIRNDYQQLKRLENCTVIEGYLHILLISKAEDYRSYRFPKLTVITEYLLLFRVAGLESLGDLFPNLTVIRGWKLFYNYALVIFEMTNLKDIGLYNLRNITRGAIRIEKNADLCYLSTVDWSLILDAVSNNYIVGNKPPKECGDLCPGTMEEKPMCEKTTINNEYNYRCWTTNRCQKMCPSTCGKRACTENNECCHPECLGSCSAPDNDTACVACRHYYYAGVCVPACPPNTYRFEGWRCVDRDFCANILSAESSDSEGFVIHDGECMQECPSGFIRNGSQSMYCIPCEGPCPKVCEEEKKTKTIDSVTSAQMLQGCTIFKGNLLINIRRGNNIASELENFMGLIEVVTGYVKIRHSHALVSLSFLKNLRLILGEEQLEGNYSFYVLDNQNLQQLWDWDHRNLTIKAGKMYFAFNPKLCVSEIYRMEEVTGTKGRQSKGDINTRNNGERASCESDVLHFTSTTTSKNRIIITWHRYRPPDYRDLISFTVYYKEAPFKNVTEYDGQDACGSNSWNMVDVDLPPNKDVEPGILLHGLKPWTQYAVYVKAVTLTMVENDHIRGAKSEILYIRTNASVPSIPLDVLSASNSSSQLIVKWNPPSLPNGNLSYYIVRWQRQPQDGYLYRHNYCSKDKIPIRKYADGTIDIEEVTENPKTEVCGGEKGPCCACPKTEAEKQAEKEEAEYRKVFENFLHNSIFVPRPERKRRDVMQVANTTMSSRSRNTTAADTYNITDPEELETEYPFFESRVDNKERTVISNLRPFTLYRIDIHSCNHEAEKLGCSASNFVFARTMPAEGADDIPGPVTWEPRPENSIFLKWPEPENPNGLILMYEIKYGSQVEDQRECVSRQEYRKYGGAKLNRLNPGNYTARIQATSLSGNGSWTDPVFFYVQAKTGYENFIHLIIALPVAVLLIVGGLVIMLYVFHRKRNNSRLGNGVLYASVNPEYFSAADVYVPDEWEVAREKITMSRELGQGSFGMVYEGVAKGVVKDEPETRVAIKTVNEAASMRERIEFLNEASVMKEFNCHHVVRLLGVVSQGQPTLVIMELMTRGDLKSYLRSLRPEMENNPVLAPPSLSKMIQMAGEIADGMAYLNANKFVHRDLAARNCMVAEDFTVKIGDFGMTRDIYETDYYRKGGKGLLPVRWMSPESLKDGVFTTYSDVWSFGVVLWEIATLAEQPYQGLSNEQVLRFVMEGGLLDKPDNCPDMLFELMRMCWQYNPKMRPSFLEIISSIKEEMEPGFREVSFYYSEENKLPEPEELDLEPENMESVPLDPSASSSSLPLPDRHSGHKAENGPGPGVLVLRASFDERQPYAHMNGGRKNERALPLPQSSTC

PDGFRB = target: T10, PDGFRB (Homo sapiens, UniProt P09619); assay: Kinase inhibition assay (33P transfer), PDGFRB; settings: read-out: PDGFRB-1
T10 construct: Kinases are expressed as either kinase domains or full length constructs; made in house

ErbB2 = target: T11, ErbB2 (Homo sapiens, UniProt P04626); assay: Kinase inhibition assay (33P transfer), ErbB2; settings: read-out: ErbB2-2
T11 construct: Kinases are expressed as either kinase domains or full length constructs; made in house
Summary of the method: as §2

IGFR-1 [2] = target: T9, IGFR-1; assay: Kinase inhibition assay (33P transfer), IGFR-1; settings: Table 2, kinase inhibition class

T1 sequence (P06239 whole entry, species assumed, the tested form may be a part): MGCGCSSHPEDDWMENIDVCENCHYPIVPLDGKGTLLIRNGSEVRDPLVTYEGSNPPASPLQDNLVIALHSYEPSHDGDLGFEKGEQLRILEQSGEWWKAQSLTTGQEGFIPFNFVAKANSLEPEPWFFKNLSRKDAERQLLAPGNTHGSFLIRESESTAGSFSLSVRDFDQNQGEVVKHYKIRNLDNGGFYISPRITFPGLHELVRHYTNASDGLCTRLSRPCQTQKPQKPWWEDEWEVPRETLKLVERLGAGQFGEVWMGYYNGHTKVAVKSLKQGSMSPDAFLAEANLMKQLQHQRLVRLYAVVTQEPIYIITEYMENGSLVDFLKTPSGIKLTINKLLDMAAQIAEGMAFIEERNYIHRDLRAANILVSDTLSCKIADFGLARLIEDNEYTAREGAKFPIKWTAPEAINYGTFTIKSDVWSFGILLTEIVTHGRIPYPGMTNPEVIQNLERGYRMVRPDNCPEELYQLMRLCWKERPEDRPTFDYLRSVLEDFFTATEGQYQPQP

IC50 (Lck) [µM]	IC50 (Zap-70) [µM]	IC50 (Itk) [µM]	IC50 (EGFR) [µM]	IC50 (Kdr; read-out: KDR-1) [µM]	IC50 (Tek) [µM]	IC50 (c-Met) [µM]	IC50 (AKT) [µM]	IC50 (IGFR-1 [1]) [µM]	IC50 (PDGFRB) [µM]	IC50 (ErbB2) [µM]	IC50 (Lck; Table 3) [µM]	IC50 (Zap-70; Table 3) [µM]	IC50 (Itk; Table 3) [µM]	IC50 (Kdr; Table 3, read-out: KDR-1) [µM]	IC50 (IGFR-1 [2]) [µM]	SMILES	IC50 (Kdr; KDR-1) [µM]
> 8.28	> 8.28	> 8.28	4.42 to 6.44	6.44 to 8.28		> 8.28	> 8.28	> 8.28	4.42 to 6.44	0.736 to 4.42						COc1ccc(CNc2nc3ccccc3n2-c2ncnc(Nc3cc(OC)c(OC)c(OC)c3)n2)cc1OC [Compound 596]	
0.892 to 5.35	> 10	7.8 to 10	> 10	0.892 to 5.35	5.35 to 7.8	> 10	> 10	< 0.892	0.892 to 5.35							CCN(CC)CCOc1cc(Nc2ncnc(-n3c(N)nc4ccccc43)n2)ccc1OC [Compound 649]	
			> 17		> 17	> 17	> 17				9.08 to 13.2	> 17	> 17	1.51 to 9.08	> 17	Oc1ccc(Nc2ncnc(-c3ccccc3)n2)cc1 [Compound 11]	

The next lines start with the molecule.

SMILES	IC50 (Lck) [µM]	IC50 (Zap-70) [µM]	IC50 (Itk) [µM]	IC50 (EGFR) [µM]	IC50 (Kdr; read-out: KDR-1) [µM]	IC50 (Tek) [µM]	IC50 (c-Met) [µM]	IC50 (AKT) [µM]	IC50 (IGFR-1 [1]) [µM]	IC50 (PDGFRB) [µM]	IC50 (ErbB2) [µM]	IC50 (Lck; Table 3) [µM]	IC50 (Zap-70; Table 3) [µM]	IC50 (Itk; Table 3) [µM]	IC50 (Kdr; Table 3, read-out: KDR-1) [µM]	IC50 (IGFR-1 [2]) [µM]	IC50 (Kdr; KDR-1) [µM]
COc1cc(Nc2ncnc(-n3c(N)nc4ccccc43)n2)ccc1OCCN1CCOCC1 [Compound 650]	0.865 to 5.19	> 9.73	> 9.73	> 9.73	< 0.865	7.57 to 9.73	7.57 to 9.73	> 9.73	< 0.865	0.865 to 5.19							
COc1cc(Nc2ncnc(NC(=O)NCc3ccccc3)n2)cc(OC)c1OC [Compound 660]	0.975 to 5.85	> 11	> 11	0.975 to 5.85	> 11		> 11	> 11	> 11	> 11	5.85 to 8.53						
Nc1nc2ccccc2n1-c1ncnc(Nc2ccccc2)n1 [Compound 651]	1.32 to 7.91	> 14.8	1.32 to 7.91	> 14.8	< 1.32	7.91 to 11.5	1.32 to 7.91	> 14.8	< 1.32	1.32 to 7.91							
COC(=O)c1ccc(-c2cc(Nc3ncnc(Nc4cccc(CC(=O)O)c4)n3)[nH]n2)cc1 [Compound 604]	0.898 to 5.39	5.39 to 7.86	0.898 to 5.39	0.898 to 5.39	0.898 to 5.39		< 0.898	5.39 to 7.86	0.898 to 5.39	0.898 to 5.39	0.898 to 5.39						
Nc1nc2ccccc2n1-c1ncnc(Nc2ccccn2)n1 [Compound 659]	7.89 to 11.5	> 14.8	1.31 to 7.89	> 14.8			> 14.8	> 14.8	1.31 to 7.89	> 14.8	> 14.8						7.89 to 11.5
COc1cc(Nc2ncnc(Nc3ccc(NC(C)=O)c(C(F)(F)F)c3)n2)cc(OC)c1OC [Compound 617]	0.836 to 5.02	> 9.41	> 9.41	5.02 to 7.32	0.836 to 5.02		> 9.41	> 9.41	5.02 to 7.32	0.836 to 5.02	> 9.41						
COc1ccc(Nc2ncnc(-c3ccccc3)n2)cc1 [Compound 14]				> 16.2		> 16.2	> 16.2	> 16.2				> 16.2	12.6 to 16.2	> 16.2	> 16.2	> 16.2	

— patent US7074789B2, “Kinase inhibitors” (Amgen Inc., priority 1999, dated 2006)
